Test results as given in patent US7628996B2, “Sterile immunogenic non-tumorigenic tumor cell compositions and methods” (priority 2002, dated 2009).
Where “and” joins values, the source holds several entries; their conditions need not be identical. Equal entries are not always repeated. Entries after “also recorded” stand apart in the source; their conditions may differ.

Legend:
[1] = tested on: Bacteriodes vulgatus; assay: Short exposure of test microorganism to antibiotic; format: cell-based
Protocol: (§1) Appropriate test microorganisms were incubated with the antibiotic for varying periods of time and at 4° C. or 37° C. “Untreated” controls were incubated with HBSS. After completion of the treatment, the samples were assayed for bioburden by the membrane filtration method on Tryptic Soy agar containing 5% sheep blood (TSA-SB) and Sabouraud's dextrose medium (SAB).
Anaerobes are the predominant microorganisms in the colon. […] Lincomycin (Lincocin hydrochloride) (Sigma-Aldrich Co.) and Primaxin® were then tested against this anaerobe.

[2] = tested on: Pseudomonas aeruginosa; assay: Short exposure of test microorganism to antibiotic; format: cell-based; details: 12.5 to 50 μg/mL, one hour at 37° C.
Protocol: as §1
(§2) Two members of the quinolone class of antibiotics norfloxacin (Noroxin® (Merck & Co., Inc.)) and levofloxacin (Levaquin® (Ortho-McNeil)) also were evaluated. In preliminary experiments, norfloxacin was tested against Enterococcus faecalis and Pseudomonas aeruginosa.

[3] = tested on: Enterococcus faecalis; assay: Short exposure of test microorganism to antibiotic; format: cell-based; details: 12.5 to 50 μg/mL, one hour at 37° C.
Protocol: as §1, §2

[4] = tested on: Candida albicans; assay: Short exposure of test microorganism to anti-mycotic; format: cell-based
Protocol: as §1
Amphotericin B was selected for action on yeasts and mold.

[5] = tested on: colon tumor cells; assay: Disinfection of trimmed colon tumor pieces before dissociation: tumor cell viability, yield, potency; format: cell-based, human; details: treatment of trimmed tumor pieces, relative to control
Source text: For pathological staging purposes, the pathologist cuts the tumor to determine the deepest margin of penetration. Consequently, the excised tumors are comprised of several pieces of tumor tissue. The tissue was dissected to remove extraneous non-tumor and necrotic tissue. The trimmed tumor pieces were further subdivided to achieve homogeneity and divided into two to four groups for processing according to the experimental design. The tissue was divided as evenly as possible among the samples, taking care to make the tumor pieces in the experimental groups appear as identical as possible. The trimmed pieces were added to a tube containing 40 mL of disinfectant and then treated by shaking for 2 minutes at 200 rpm on a rotating platform shaker. […] The amount of tumor dissociated was determined by weighing the tumor fragments prior to dissociation and after completion of the dissociation cycles. […]
Tumor sample 500-0051-KNO was washed with saline, a second wash with 1% Triton X-100 and followed by three additional saline washes (see Example 1). […] In order to maximize the possible bioburden in the tumors and present a greater challenge to the disinfectant, the following modifications to the procedure were made: the tumors were minimally washed (one 500 mL quantity) prior to pathological dissection; the dissociations were performed in the absence of gentamicin.

[6] = tested on: bioburden of colon tumors; assay: Disinfection of trimmed colon tumor pieces before dissociation: bioburden of tumor cell suspension; format: cell-based; details: for effect of disinfectant on bioburden (in words): treatment of trimmed tumor pieces, concentrations tested; for Bioburden SAB-CM Aerobic / Bioburden TSA-SB Aerobic / Bioburden TSA-SB Anaerobic: per patient tumor sample
Source text: (§3) For pathological staging purposes, the pathologist cuts the tumor to determine the deepest margin of penetration. Consequently, the excised tumors are comprised of several pieces of tumor tissue. The tissue was dissected to remove extraneous non-tumor and necrotic tissue. The trimmed tumor pieces were further subdivided to achieve homogeneity and divided into two to four groups for processing according to the experimental design. The tissue was divided as evenly as possible among the samples, taking care to make the tumor pieces in the experimental groups appear as identical as possible. The trimmed pieces were added to a tube containing 40 mL of disinfectant and then treated by shaking for 2 minutes at 200 rpm on a rotating platform shaker. The trimmed tumor pieces were then washed three times with HBSS and then dissociated. The amount of tumor dissociated was determined by weighing the tumor fragments prior to dissociation and after completion of the dissociation cycles. After dissociation, the tumor cell suspension was sampled for percent tumor cell viability, number of viable tumor cells, tumor cell potency and bioburden. The yield was defined as the number of viable tumor cells obtained per gram of tumor that was actually dissociated. The bioburden was normalized to CFU/10^7 viable tumor cells, approximately one dose of product.
(§4) Tumor sample 500-0051-KNO was washed with saline, a second wash with 1% Triton X-100 and followed by three additional saline washes (see Example 1). The resultant bioburden was below the limit of detection of the assay. In order to evaluate the ability of a disinfectant to remove bioburden, one to two logs of bioburden must be detectable in the control sample. In order to maximize the possible bioburden in the tumors and present a greater challenge to the disinfectant, the following modifications to the procedure were made: the tumors were minimally washed (one 500 mL quantity) prior to pathological dissection; the dissociations were performed in the absence of gentamicin.

[7] = tested on: endogenous bioburden present in colon tumors; assay: Additional one hour incubation with antibiotics after enzymatic dissociation: bioburden; format: cell-based; details: additional incubation vs no incubation; per tumor
Protocol: as §1
For the first four tumors processed, a portion of the cell suspension dissociated in the presence of gentamicin or gentamicin with other antibiotics was also incubated for an additional hour (after completion of the dissociation) with the same antibiotic(s). This additional incubation was evaluated for increased reduction of bioburden.

[8] = tested on: microbial growth; assay: Disinfection of trimmed colon tumor pieces before dissociation: sterility in TSB and FTG broth; format: cell-based; set-up: key: Pass (P) (no evidence of microbial growth); Fail (F) (Microbial growth); details: per patient tumor sample
Source text: as §3, §4

[9] = 0.4% Clorpactin, 2 successive 2 min treatments
[10] = 0.4% Clorpactin, one 2 min treatment

Cc1ncc([N+](=O)[O-])n1CCO [Flagyl]
effectiveness against the anaerobe (in words) ([1]; 2.5 and 5 μg/mL, aerobic incubation conditions): ineffectual

CCn1cc(C(=O)O)c(=O)c2cc(F)c(N3CCNCC3)cc21 [Norfloxacin, norfloxacin]
effectiveness (in words) [2]: highly effective
effectiveness (in words) [3]: ineffectual

C[C@@H]1[C@H](O)[C@@H](C)/C=C/C=C/C=C/C=C/C=C/C=C/C=C/[C@H](O[C@@H]2O[C@H](C)[C@@H](O)[C@H](N)[C@@H]2O)C[C@@H]2O[C@](O)(C[C@@H](O)C[C@@H](O)[C@H](O)CC[C@@H](O)C[C@@H](O)CC(=O)O[C@H]1C)C[C@H](O)[C@H]2C(=O)O [amphotericin B]
reduction in colonies (in words) ([4]; 0.5 to 1.0 μg/mL, observed one day after treatment): Marked reduction in colonies
inhibition (in words) ([4]; observed after 8 days in culture, higher concentration): only slight inhibition

CCC[C@@H]1C[C@@H](C(=O)N[C@@H]([C@H]2O[C@H](SC)[C@H](O)[C@@H](O)[C@H]2O)[C@@H](C)O)N(C)C1 [lincomycin, Lincomycin]
reduction of the anaerobe ([1]; extended conditions: 40 minutes at 37° C., 4° C. for 60 minutes, additional 60 minutes at 37° C.): one log reduction
reduction of the anaerobe ([1]; overnight at 4° C., Primaxin 100 μg/mL, lincomycin up to 150 μg/mL): no effect

OCl [sodium hypochlorite]
effect of disinfectant on tumor cell yield (in words) [5]: significantly reduced the tumor cell yield relative to the control
effect of disinfectant on bioburden (in words) [6]: effective in reducing the bioburden

gentamicin
Percent Reduction of Bioburden, SAB medium [7]: 80%
Percent Reduction of Bioburden, TSA medium [7]: 41%

sodium oxychlorosene [Clorpactin ®]
Bioburden SAB-CM Aerobic [6, 9]: ≦2 CFU/107 Cells
Bioburden TSA-SB Aerobic [6, 9]: ≦2 CFU/107 Cells
Bioburden TSA-SB Anaerobic [6, 9]: 3800 CFU/107 Cells and ≦2 CFU/107 Cells
% Reduction of bioburden TSA-SB Aerobic ([6]; 0.4% Clorpactin, 2 successive 2 min treatments, vs control of same tumor): (99%)
two successive two minute treatments versus single treatment (in words) ([6]; 0.4% Clorpactin, fresh disinfectant each time): No advantage for two treatments was observed
Bioburden SAB-CM Aerobic [6, 10]: 207 CFU/107 Cells and ≦11 CFU/107 Cells and ≦23 CFU/107 Cells and ≦2 CFU/107 Cells (2×) and <49 CFU/107 Cells
Bioburden TSA-SB Aerobic [6, 10]: 3910 CFU/107 Cells and <11 CFU/107 Cells and <23 CFU/107 Cells and 2 CFU/107 Cells and ≦2 CFU/107 Cells and <49 CFU/107 Cells
Bioburden TSA-SB Anaerobic [6, 10]: 3890 CFU/107 Cells and 343 CFU/107 Cells and <23 CFU/107 Cells and 294 CFU/107 Cells and ≦2 CFU/107 Cells and <49 CFU/107 Cells
Bioburden SAB-CM Aerobic ([6]; 0.8% Clorpactin, 2 min): 4452 CFU/107 Cells and ≦13 CFU/107 Cells
Bioburden TSA-SB Aerobic ([6]; 0.8% Clorpactin, 2 min): 7100 CFU/107 Cells and <13 CFU/107 Cells
Bioburden TSA-SB Anaerobic ([6]; 0.8% Clorpactin, 2 min): 8870 CFU/107 Cells and 1364 CFU/107 Cells
% Reduction of bioburden TSA-SB Anaerobic ([6]; 0.8% Clorpactin, 2 min, vs control of same tumor): (92%)
effect on bioburden (in words) ([6]; Clorpactin at 0.8% compared with 0.4%): no further reduction in bioburden was observed
effect of disinfectant on bioburden (in words) [6]: reduced the bioburden in the sample; also recorded: bioburden reductions to almost three orders of magnitude
Sterility FTG [8, 9]: F and P
Sterility TSB [8, 9]: F
Sterility FTG [8, 10]: F (3×) and P (3×)
Sterility TSB [8, 10]: F (4×) and P (2×)
Sterility FTG ([8]; 0.8% Clorpactin, 2 min): F
Sterility TSB ([8]; 0.8% Clorpactin, 2 min): F
